We go through two compounds from patent US9862676B2, “Hydroxamic acid derivative or salt thereof” (TOYAMA CHEMICAL CO., LTD., priority 2013, dated 2018).

pIC50: −log10 of the molar value. Converted amounts (≈) assume the structure as drawn.

The subject of data set [1] is multidrug-resistant Pseudomonas aeruginosa clinical isolate (S-2838 strain). As to the kind of experiment: Defense against mouse systemic infection using multidrug-resistant Pseudomonas aeruginosa. Type of data set: in vivo. The note with it: male ICR mice, S-2838 strain i.p. The procedure: The mice used were male ICR SPF mice (4 weeks old: 5 individuals per group). To prepare a bacterial inoculum solution, a multidrug-resistant Pseudomonas aeruginosa clinical isolate (S-2838 strain) cultured overnight at 37° C. on a Mueller-Hinton agar plate was cultured for 5 hours in a cation-adjusted Mueller-Hinton medium and then diluted 10-fold with a 10% mucin/phosphate buffer solution to prepare the inoculum solution. Infection was induced by the intraperitoneal inoculation of 0.5 mL of the inoculum solution (approximately 10^6 CFU/mouse) to each mouse. Each test compound was dissolved in a 10% hydroxypropylated β-cyclodextrin/2.5% mannitol aqueous solution and intravenously administered to the tail a single dose of 50 mg/kg at 1 hour after the infection. Three days after the infection, the number of survivors was recorded.

Data set [2] concerns the target T1, Pseudomonas aeruginosa LpxC enzyme (Pseudomonas aeruginosa, UniProt P47205).
T1 construct: made in house; host or cells: Escherichia coli
T1 sequence (P47205 1-303): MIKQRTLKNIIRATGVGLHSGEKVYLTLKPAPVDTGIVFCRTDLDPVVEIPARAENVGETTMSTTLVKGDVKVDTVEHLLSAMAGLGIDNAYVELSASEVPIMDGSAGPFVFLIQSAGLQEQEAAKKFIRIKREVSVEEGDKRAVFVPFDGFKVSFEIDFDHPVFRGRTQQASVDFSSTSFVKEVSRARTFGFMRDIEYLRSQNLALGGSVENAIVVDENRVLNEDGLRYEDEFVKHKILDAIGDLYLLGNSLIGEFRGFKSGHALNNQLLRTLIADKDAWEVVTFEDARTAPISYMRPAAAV
The data set can be described thus: Test to evaluate Pseudomonas aeruginosa LpxC enzyme inhibitory activity. Type of data set: biochemical. As for the experimental part: The Pseudomonas aeruginosa LpxC enzyme activity was measured by reacting LpxC with its substrate UDP-3-O—(R-3-hydroxydecanoyl)-N-acetylglucosamine and measuring the amount of the reaction product by the quantification of an amino group present in the product. This measurement was carried out according to a method described in, for example, International Publication No. WO 11/132712 pamphlet or a method similar thereto.
Specifically, to the Pseudomonas aeruginosa LpxC enzyme (which was obtained by preparing chromosomal DNA from Pseudomonas aeruginosa, obtaining the Pseudomonas aeruginosa LpxC gene by PCR (polymerase chain reaction) using LpxC-specific primers, and incorporating this gene into a vector, followed by gene expression using Escherichia coli), 20 μmol/L UDP-3-O—(R-3-hydroxydecanoyl)-N-acetylglucosamine (Wako Pure Chemical Industries, Ltd.) was added, and the mixture was incubated at 25° C. for 1 hour. This reaction was carried out in a 40 mmol/L HEPES buffer solution (pH 8.0) containing 0.02% Brij 35 and 80 μmol/L dithiothreitol. The reaction was terminated by the addition of 20% acetic acid (final concentration: 0.95%) to the reaction solution. Then, fluorescamine (final concentration: 1.6 mg/mL) dissolved in anhydrous dioxane was added thereto. The amount of the reaction product was detected at an excitation wavelength/fluorescence wavelength=390 nm/495 nm. Each test compound was allowed to coexist at various concentrations in the reaction to obtain an inhibition curve.

Data set [3] is described as follows: Test on inhibition of Vero cell growth (XTT). Type of data set: cell-based. The note with it: African green monkey, Vero cells, 3 days culture, read-out: CC50 (concentration inhibiting 50% of cell growth). As for the experimental part: Each test compound was dissolved in dimethyl sulfoxide, adjusted to each concentration using E'MEM, and then dispensed at 0.1 mL/well to 96-well microplates. The Vero cell suspension was prepared at 3×10^4 cells/mL using E'MEM supplemented with 20% FBS, inoculated thereto at 0.1 mL/well, and cultured at 37° C. for 3 days under 5% CO2. At the completion of the culture, PBS supplemented with 1 mg/mL 2,3-bis-(2-methoxy-4-nitro-5-sulfophenyl)-5-((phenylamino)carbonyl)-2H-tetrazolium inner salt monosodium salt (XTT) and 25 μM phenazine methosulfate (PMS) was prepared and added thereto at 50 μL/well. Approximately 2 hours later, the absorbance at 450 nm was measured using a microplate reader.

Data set [4] relates to Chinese hamster lung fibroblasts (CHL/IU cells). The data set can be described thus: In vitro micronucleus test for genotoxicity. Type of data set: cell-based. The conditions noted are these: dose of 1 mmol/L or lower, short-time treatment (with and without metabolic activation) and 30-hour treatment methods. The procedure:
In order to examine the inducibility of the chromosomal aberrations by each test compound in cultured cells, the in vitro micronucleus test was carried out. This test was carried out by a short-time treatment method (in the presence and absence of a metabolic activation) and a 30-hour treatment method using Chinese hamster lung fibroblasts (CHL/IU cells). The concentration of the test compound was set to 1.00 mmol/L as the maximum dose with reference to the “Guidance on Genotoxicity Testing and Data Interpretation for Pharmaceuticals Intended for Human Use”. Specimens were observed as to doses of 0.25, 0.50 and 1.00 mmol/L. The cells were inoculated at 15×10^4 cells to a 60-mm dish (IWAKI) and precultured at 37° C. for 24 hours under 5% CO2 using a MEM medium (Sigma-Aldrich Co., Ltd.) containing 10% newborn calf serum (Sigma-Aldrich Co., Ltd.) and 50 U/mL-50 μg/mL Penicillin-Streptomycin (Sigma-Aldrich Co., Ltd.). After the completion of the preculture, a vehicle (DMSO) or each test compound was added thereto. In the short-time treatment method, 6 hours after the culture, the cells were washed with PBS(−) (Sigma-Aldrich Co., Ltd.), and then, the medium was replaced with a fresh medium, followed by further culture for 24 hours. In the 30-hour treatment method, after the addition of the test compound, the cells were cultured for 30 hours. […]

The subject of data set [5] is Pseudomonas aeruginosa ATCC27853 strain. The data set can be described thus: Antibacterial activity, MIC by broth microdilution (CLSI). Format: cell-based. As for the experimental part: (§1) The minimum inhibitory concentration (MIC) was measured according to the CLSI (Clinical and Laboratory Standards Institute) standard method using a broth microdilution method given below. The bacteria used were a Pseudomonas aeruginosa ATCC27853 strain, an Escherichia coli ATCC25922 strain and a Klebsiella pneumoniae ATCC13883 strain. Test bacterial cells of each strain cultured overnight in a Mueller-Hinton agar medium were scraped off and suspended at the McFarland 0.5 standard, and this suspension was diluted 10-fold to prepare an inoculum solution. The inoculum solution (0.005 mL) was inoculated to a cation-adjusted Mueller-Hinton medium containing each test compound and cultured at 35° C. for 16 to 20 hours. The minimum drug concentration at which bacterial growth was not visible to the naked eye was defined as MIC.
A general note: Broth dilution looks for growth in wells or tubes with falling amounts of substance.

Data set [6] concerns the target T2, hERG current (Homo sapiens, UniProt Q12809).
T2 construct: host or cells: HEK 293 cells
The data set can be described thus: Evaluation of hERG inhibitory activity (whole cell clamp, HEK 293 cells). Type of data set: cell-based. The conditions noted are these: up to 300 μmol/L; HEK 293 cells transfected with hERG gene, tail current 10 minutes after application. The procedure: HEK 293 cells (human embryo kidney 293 cells, Cytomyx LLC) transfected with hERG gene (human ether-a-go-go related gene) were used. The culture solution used was a MEM medium containing 10% fetal bovine serum and 1% nonessential amino acid and further supplemented with Geneticin at a concentration of 400 μg/mL. The cells were cultured in a carbonic acid gas incubator (37.0° C., 5% CO2).
The hERG current was measured by a whole cell clamp method. A glass cover with the cells for measurement attached thereto was placed in a dish and perfused at a rate of 2 mL/min with a perfusate (composition: 137 mmol/L NaCl, 4 mmol/L KCl, 10 mmol/L HEPES, 1.8 mmol/L CaCl2, 1 mmol/L MgCl2, 10 mmol/L glucose, pH 7.4). The inside temperature of the perfusion chamber was kept at 25° C. […]
Before the application and 10 minutes after the application, the peak value of tail current in the hERG current waveform was analyzed to calculate the ratio of the value 10 minutes after the application to the value before the application (relative value, %).

Data set [7] concerns Escherichia coli ATCC25922 strain. The data set can be described thus: Antibacterial activity, MIC by broth microdilution (CLSI). Format: cell-based. The procedure:
as §1

Data set [8] concerns Klebsiella pneumoniae ATCC13883 strain. The description is as above. Type of data set: cell-based. As for the experimental part:
as §1

[9] abbreviates: single intravenous dose 50 mg/kg 1 hour after infection.

T2 sequence (Q12809 whole entry): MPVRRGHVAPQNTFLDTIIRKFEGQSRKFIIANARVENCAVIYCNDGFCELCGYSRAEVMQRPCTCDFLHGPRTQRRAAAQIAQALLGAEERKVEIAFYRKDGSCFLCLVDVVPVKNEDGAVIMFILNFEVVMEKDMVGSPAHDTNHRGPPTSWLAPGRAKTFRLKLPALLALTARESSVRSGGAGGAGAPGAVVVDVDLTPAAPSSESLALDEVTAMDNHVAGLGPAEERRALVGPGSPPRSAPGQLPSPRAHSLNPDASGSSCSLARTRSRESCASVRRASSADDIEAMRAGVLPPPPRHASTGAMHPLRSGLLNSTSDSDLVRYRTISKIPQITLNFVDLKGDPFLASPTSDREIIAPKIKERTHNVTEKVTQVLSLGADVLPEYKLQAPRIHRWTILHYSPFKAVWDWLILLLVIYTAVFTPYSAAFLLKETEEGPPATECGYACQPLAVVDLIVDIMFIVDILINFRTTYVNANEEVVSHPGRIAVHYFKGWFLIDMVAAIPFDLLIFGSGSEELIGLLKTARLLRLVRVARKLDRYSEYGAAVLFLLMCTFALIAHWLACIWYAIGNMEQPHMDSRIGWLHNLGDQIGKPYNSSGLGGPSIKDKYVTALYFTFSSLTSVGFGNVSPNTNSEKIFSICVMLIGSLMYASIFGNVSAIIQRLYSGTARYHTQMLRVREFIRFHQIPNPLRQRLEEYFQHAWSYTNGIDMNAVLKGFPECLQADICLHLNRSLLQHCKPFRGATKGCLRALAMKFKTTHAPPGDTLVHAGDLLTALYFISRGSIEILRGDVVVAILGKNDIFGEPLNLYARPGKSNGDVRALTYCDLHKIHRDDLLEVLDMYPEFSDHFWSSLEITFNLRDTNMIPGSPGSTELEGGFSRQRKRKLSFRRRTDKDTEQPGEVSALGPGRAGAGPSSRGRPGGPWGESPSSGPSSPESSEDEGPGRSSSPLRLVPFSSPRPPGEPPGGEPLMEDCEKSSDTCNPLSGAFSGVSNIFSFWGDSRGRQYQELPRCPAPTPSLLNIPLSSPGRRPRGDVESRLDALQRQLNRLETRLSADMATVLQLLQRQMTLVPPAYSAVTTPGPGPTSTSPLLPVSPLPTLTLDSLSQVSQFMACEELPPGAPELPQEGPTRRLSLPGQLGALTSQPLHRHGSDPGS

Broadly, the pIC50 is the negative decadic logarithm of the IC50, by convention in mol/L. Low values mean a large IC50, high ones a small IC50. The term MIC denotes the lowest concentration that inhibits growth of the organism. Regarding `CNC(=O)[C@@](C)(C(=O)NO)N(C)C(=O)c1ccc(C#Cc2ccc([C@H](O)CO)cc2)cc1` [Example 20, (2S)-2-((4-((4-((1S)-1,2-dihydroxyethyl)phenyl)ethynyl)benzoyl)(methyl)amino)-N-hydroxy-N′,2-dimethyl-malonamide], the “mice surviving 3 days after the bacterial inoculation” value in data set [1] (25 mg/kg) was at least 60%; in data set [1] (setting [9]) it was 100%. The same compound showed a pIC50 in data set [2] of over 7.30. In data set [3], the CC50 at 3 days was at least 100 µg/mL. For the same compound, the “in vitro micronucleus test result” value in data set [4] was “negative”. Further, in data set [5], the MIC came to 1 µg/mL (≈ 2.28 µM). Also, the hERG inhibitory activity entry in data set [6] is reported as “did not exhibit hERG inhibitory activity”.

`CNC(=O)[C@@](C)(C(=O)NO)N(C)C(=O)c1ccc(C#Cc2ccc([C@H](O)COC)cc2)cc1` [Example 23, (2S)—N-hydroxy-2-((4-((4-((1S)-1-hydroxy-2-methoxyethyl)phenyl)ethynyl)benzoyl)(methyl)amino)-N′,2-dimethyl-malonamide]: in data set [1] (setting [9]), the “mice surviving 3 days after the bacterial inoculation” value is recorded as 100%. The compound also had a pIC50 in data set [2] of over 7.30. Besides, the CC50 at 3 days in data set [3] is at least 100 µg/mL. The minimum inhibitory concentration (MIC) in data set [7] was found to be 0.25 µg/mL (≈ 0.551 µM); in data set [8], 1 µg/mL (≈ 2.21 µM); in data set [5], 1 µg/mL (≈ 2.21 µM). Besides, the hERG inhibitory activity entry in data set [6] is listed as “did not exhibit hERG inhibitory activity”.
